Test system: HK-2 cells
Assay: Cellular uptake (fluorescence microscope, FACS, ICP-MS)
Format: cell-based, human
Settings: 4 hours, non-ROS conditions
Method: For uptake studies, HK-2 cells (3×10^4 cells/well) were seeded onto Lab-Tek® Chamber Slides and cultured overnight. […] Untreated cells were used as a control. After incubation, the medium was aspirated, followed by performing DPBS wash and 4% paraformaldehyde (PFA) fixation. The cells were then counterstained with 4′,6-diamidino-2-phenylindole (DAPI). A fluorescence intensity of IR780 was analyzed by fluorescence microscope (Evos FL Auto 2, Thermo Fisher Scientific) to determine IR780 uptake by cells. To confirm the effect of ROS on intracellular distribution and release, ROS conditions were mimicked by treating the cells with 200 μM H2O2 for 2 hours or culturing the cells in a hypoxia chamber for 2 days before treatment. Cellular uptake was further quantified by flow cytometry. Briefly, 1×10^5 HK-2 cells/well were seeded in a 12-well plate and incubated overnight. The medium was aspirated, another sample was added and incubated for 4 hours. […] The cells were then re-suspended in FACS buffer containing 3% FBS, and fluorescence-activated cell sorting (FACS) was performed to determine the uptake capacity of each group. […] The cellular uptake of the final PTC-M nanocomposite was determined by ICP-MS analysis. […] Aqua regia (1 ml) was added to the final pellets for digestion, then the sample was diluted and analyzed for manganese content by ICP-MS. […]

IR780 iodide
cellular uptake (IR780 fluorescence, microscope): higher uptake rate regardless of nanomicelle loading

Source: patent US20240390513A1, “PHARMACEUTICAL COMPOSITION FOR TREATING INFLAMMATORY DISEASES” (INDUSTRY FOUNDATION OF CHONNAM NATIONAL UNIVERSITY, priority 2021, published 2024)
